In patent US8273754B2, “Substituted 1H-pyrazolo[3,4-D]pyrimidine-6-amine compounds” (ArQule, Inc., priority 2008, dated 2012):
Like-named read-outs stand apart in the source and are kept apart here.

Test system: cancer cells
Experiment: MTS cell growth inhibition assay (72 hours)
Type: cell-based
Method: Cells were maintained at 37° C., 5% CO2 in DMEM media supplemented with 1% fetal bovine serum, penicillin/streptomycin and fungizone (Invitrogen). Cells were seeded into 96-well tissue culture plates at 3000 per well and cultured at 37° C. for 18 hours. Test compounds were dissolved and diluted to 300× in DMSO then further diluted 1:40 in DMEM before addition to cells (1:7.5 dilution). Cells were incubated with test compounds for 72 hours followed by incubation with tetrazolium compound (3-(4,5-dimethylthiazol-2-yl)-5-(3-carboxymethoxyphenyl)-2-(4-sulfophenyl)-2H-tetrazolium, inner salt; MTS) and the electron coupling reagent, phenazine methosulfate (PMS) for 4 hours. […] The ability of compounds to inhibit cell growth in this assay is correlated with the reduction of dehydrogenase enzyme activity found in metabolically active cells. The measurement of the absorbance of the formazan was assessed using an ENVISION™ (Perkin Elmer) microplate reader at 492 nm. The calculated IC50 value is the concentration of the test compound that causes a 50% decrease in the absorbance. […] A=>79% inhibition, B=>50 to 79% inhibition, C=<50% inhibition.

[1] = Homo sapiens, DLD-1, 72 h, DLD-1 cells, read-out: DLD-1 MTS 72 hr at 10 μM
[2] = Homo sapiens, KATO III, 72 h, KATO III cells, read-out: KATO III MTS 72 hr at 10 μM
[3] = Homo sapiens, MDA-MB-231, 72 h, MDA-MB-231 cells, read-out: MDA-MB-231 MTS 72 hr at 10 μM
[4] = Homo sapiens, NCI-H1299, 72 h, NCI-H1299 cells, read-out: NCI-H1299 MTS 72 hr at 10 μM
[5] = PaCa-2, 72 h, PACA-2 cells, read-out: PACA-2 MTS 72 hr at 10 μM

Measured: inhibition at 10 µM

COc1cccc(S(=O)(=O)N2CC(Nc3nc(N)nc4[nH]ncc34)Cc3ccccc32)c1 (stereo not shown) [Compound 24, N4-(1-(3-methoxyphenylsulfonyl)-1,2,3,4-tetrahydroquinolin-3-yl)-1H-pyrazolo[3,4-d]pyrimidine-4,6-diamine]
< 50%: [1] | [3] | [4] | [5]
> 79%: [2]

CS(=O)(=O)c1ccc(CN2CC(Nc3nc(N)nc4[nH]ncc34)Cc3ccccc32)cc1 (stereo not shown) [Compound 139, N4-{1-[4-(methylsulfonyl)benzyl]-1,2,3,4-tetrahydroquinolin-3-yl}-1H-pyrazolo[3,4-d]pyrimidine-4,6-diamine]
< 50%: [3] | [4]
50 to 79%: [5]
> 79%: [1] | [2]

Cc1ccccc1Oc1cccc(S(=O)(=O)N2CC(Nc3nc(N)nc4[nH]ncc34)Cc3ccccc32)c1 (stereo not shown) [Compound 71, N4-(1-(3-(o-tolyloxy)phenylsulfonyl)-1,2,3,4-tetrahydroquinolin-3-yl)-1H-pyrazolo[3,4-d]pyrimidine-4,6-diamine]
> 79%: [1] | [2] | [3] | [5]
50 to 79%: [4]

Nc1nc(NC2Cc3ccccc3N(S(=O)(=O)c3cc(C(F)(F)F)ccc3Cl)C2)c2cn[nH]c2n1 (stereo not shown) [Compound 66, N4-(1-(2-chloro-5-(trifluoromethyl)phenylsulfonyl)-1,2,3,4-tetrahydroquinolin-3-yl)-1H-pyrazolo[3,4-d]pyrimidine-4,6-diamine]
< 50%: [1] | [2] | [3] | [4] | [5]

Nc1nc(NC2Cc3ccccc3N(S(=O)(=O)c3cccc(NC(=O)Nc4ccccc4)c3)C2)c2cn[nH]c2n1 (stereo not shown) [Compound 200, 1-[3-({3-[(6-amino-1H-pyrazolo[3,4-d]pyrimidin-4-yl)amino]-3,4-dihydroquinolin-1(2H)-yl}sulfonyl)phenyl]-3-phenylurea]
< 50%: [1] | [2] | [3] | [4] | [5]

Nc1nc(NC2Cc3ccccc3N(S(=O)(=O)c3cccc(NC(=O)Nc4ccc5c(c4)Cc4ccccc4-5)c3)C2)c2cn[nH]c2n1 (stereo not shown) [Compound 202, 1-[3-({3-[(6-amino-1H-pyrazolo[3,4-d]pyrimidin-4-yl)amino]-3,4-dihydroquinolin-1(2H)-yl}sulfonyl)phenyl]-3-(9H-fluoren-2-yl)urea]
> 79%: [1] | [2] | [3] | [5]
50 to 79%: [4]

Cc1ccc(S(=O)(=O)N2CC(Nc3nc(N)nc4[nH]ncc34)Cc3ccccc32)cc1 (stereo not shown) [Compound 22, N4-(1-tosyl-1,2,3,4-tetrahydroquinolin-3-yl)-1H-pyrazolo[3,4-d]pyrimidine-4,6-diamine]
< 50%: [1] | [2] | [3] | [4] | [5]

CS(=O)(=O)N1CC(Nc2nc(N)nc3[nH]ncc23)Cc2ccccc21 (stereo not shown) [Compound 29, N4-(1-(methylsulfonyl)-1,2,3,4-tetrahydroquinolin-3-yl)-1H-pyrazolo[3,4-d]pyrimidine-4,6-diamine]
< 50%: [1] | [2] | [3] | [4] | [5]

Nc1nc(NC2CCN(S(=O)(=O)c3cc(Cl)cc(Cl)c3)c3ccccc3C2)c2cn[nH]c2n1 (stereo not shown) [Compound 174, N4-{1-[(3,5-dichlorophenyl)sulfonyl]-2,3,4,5-tetrahydro-1H-1-benzazepin-4-yl}-1H-pyrazolo[3,4-d]pyrimidine-4,6-diamine]
< 50%: [3] | [4]
50 to 79%: [1] | [2] | [5]

Nc1nc(NC2Cc3ccccc3N(C(=O)C(=O)c3c[nH]c4ccccc34)C2)c2cn[nH]c2n1 (stereo not shown) [Compound 83, 1-(3-(6-amino-1H-pyrazolo[3,4-d]pyrimidin-4-ylamino)-3,4-dihydroquinolin-1(2H)-yl)-2-(1H-indol-3-yl)ethane-1,2-dione]
< 50%: [1] | [2] | [3] | [4] | [5]

COc1cc(F)ccc1CN1CC(Nc2nc(N)nc3[nH]ncc23)Cc2ccccc21 (stereo not shown) [Compound 141, N4-[1-(4-fluoro-2-methoxybenzyl)-1,2,3,4-tetrahydroquinolin-3-yl]-1H-pyrazolo[3,4-d]pyrimidine-4,6-diamine]
> 79%: [1] | [2] | [3] | [4] | [5]

Nc1nc(NC2Cc3ccccc3N(Cc3ccccc3-c3ccc(F)cc3)C2)c2cn[nH]c2n1 (stereo not shown) [Compound 159, N4-{1-[(4′-fluorobiphenyl-2-yl)methyl]-1,2,3,4-tetrahydroquinolin-3-yl}-1H-pyrazolo[3,4-d]pyrimidine-4,6-diamine]
< 50%: [1] | [2] | [3] | [4] | [5]

Nc1nc(NC2Cc3ccccc3N(S(=O)(=O)c3cccc(NC(=O)Nc4cc(C(F)(F)F)ccc4F)c3)C2)c2cn[nH]c2n1 (stereo not shown) [Compound 220, 1-[3-({3-[(6-amino-1H-pyrazolo[3,4-d]pyrimidin-4-yl)amino]-3,4-dihydroquinolin-1(2H)-yl}sulfonyl)phenyl]-3-[2-fluoro-5-(trifluoromethyl)phenyl]urea]
> 79%: [1] | [2] | [3] | [4] | [5]

COc1cc(CN2CC(Nc3nc(N)nc4[nH]ncc34)Cc3ccccc32)ccc1F (stereo not shown) [Compound 146, N4-[1-(4-fluoro-3-methoxybenzyl)-1,2,3,4-tetrahydroquinolin-3-yl]-1H-pyrazolo[3,4-d]pyrimidine-4,6-diamine]
> 79%: [1] | [2] | [3] | [5]
50 to 79%: [4]

Nc1nc(NC2Cc3ccccc3N(C(=O)COc3cccc(Cl)c3)C2)c2cn[nH]c2n1 (stereo not shown) [Compound 93, 1-(3-(6-amino-1H-pyrazolo[3,4-d]pyrimidin-4-ylamino)-3,4-dihydroquinolin-1(2H)-yl)-2-(3-chlorophenoxy)ethanone]
< 50%: [1] | [2] | [3] | [4] | [5]

Nc1nc(NC2Cc3ccccc3N(S(=O)(=O)c3ccsc3)C2)c2cn[nH]c2n1 (stereo not shown) [Compound 67, N4-(1-(thiophen-3-ylsulfonyl)-1,2,3,4-tetrahydroquinolin-3-yl)-1H-pyrazolo[3,4-d]pyrimidine-4,6-diamine]
< 50%: [1] | [2] | [3] | [4] | [5]

N#Cc1cccc(S(=O)(=O)N2CCC(Nc3nc(N)nc4[nH]ncc34)Cc3ccccc32)c1 (stereo not shown) [Compound 180, 3-({4-[(6-amino-1H-pyrazolo[3,4-d]pyrimidin-4-yl)amino]-2,3,4,5-tetrahydro-1H-1-benzazepin-1-yl}sulfonyl)benzonitrile]
< 50%: [1] | [2] | [3] | [4] | [5]

Nc1nc(NC2Cc3ccccc3N(S(=O)(=O)c3ccc4ccccc4c3)C2)c2cn[nH]c2n1 (stereo not shown) [Compound 34, N4-(1-(naphthalen-2-ylsulfonyl)-1,2,3,4-tetrahydroquinolin-3-yl)-1H-pyrazolo[3,4-d]pyrimidine-4,6-diamine]
< 50%: [1] | [2] | [3] | [4] | [5]

Cc1cccc(NC(=O)Nc2cccc(S(=O)(=O)N3CC(Nc4nc(N)nc5[nH]ncc45)Cc4ccccc43)c2)c1 (stereo not shown) [Compound 205, 1-[3-({3-[(6-amino-1H-pyrazolo[3,4-d]pyrimidin-4-yl)amino]-3,4-dihydroquinolin-1(2H)-yl}sulfonyl)phenyl]-3-(3-methylphenyl)urea]
< 50%: [4]
> 79%: [2] | [5]
50 to 79%: [1] | [3]

Nc1nc(NC2CCN(S(=O)(=O)c3ccc4c(c3)OCCO4)c3ccccc3C2)c2cn[nH]c2n1 (stereo not shown) [Compound 165, N4-[1-(2,3-dihydro-1,4-benzodioxin-6-ylsulfonyl)-2,3,4,5-tetrahydro-1H-1-benzazepin-4-yl]-1H-pyrazolo[3,4-d]pyrimidine-4,6-diamine]
< 50%: [1] | [2] | [3] | [4] | [5]
